According to US20080269510A1, “New alpha-glucosidase inhibitors and antibacterial compounds from Myrtus communis L” (priority 2005, published 2008):

Tests used:
[1] = autoxidation and FeCl3- and EDTA-mediated oxidation of linoleic acid; cited from earlier work
[2] = test system: multidrug-resistant (MDR) clinically relevant bacteria; conditions: cited from earlier work
Salmonella typhi = experiment: Antibacterial screening, agar well diffusion; type: cell-based; conditions: for Inhibition zone, ST (Salmonella typhi): 100 μL of 3 mg/3 ml DMSO sample per 6-mm well, 37° C., 24 h
Shigella flexneri = experiment: Antibacterial screening, agar well diffusion; conditions: 100 μL of 3 mg/3 ml DMSO sample per 6-mm well, 37° C., 24 h
Staphylococcus aureus = experiment: Antibacterial screening, agar well diffusion; type: cell-based; conditions: for Inhibition zone, SA (Staphylococcus aureus): 100 μL of 3 mg/3 ml DMSO sample per 6-mm well, 37° C., 24 h
Description: (§1) As a negative control, DMSO was used.

Bacillus subtilis = experiment: Antibacterial screening, agar well diffusion; type: cell-based; conditions: 100 μL of 3 mg/3 ml DMSO sample per 6-mm well, 37° C., 24 h
Description: as §1

Pseudomonas aeruginosa = experiment: Antibacterial screening, agar well diffusion; type: cell-based; conditions: for Inhibition zone, PA (Pseudomonas aeruginosa): 100 μL of 3 mg/3 ml DMSO sample per 6-mm well, 37° C., 24 h
Description: as §1

Escherichia coli = experiment: Antibacterial screening, agar well diffusion; type: cell-based; conditions: 100 μL of 3 mg/3 ml DMSO sample per 6-mm well, 37° C., 24 h
Description: as §1

[3] = test system: α-Glucosidase (E.C.3.2.1.20); experiment: α-Glucosidase enzyme inhibition assay (PNP-G substrate, spectrophotometric); type: biochemical; conditions: for α-glucosidase inhibition (in words): compared with standards acarbose and deoxynojirimycin; for IC50: pH 6.9, 37° C., 0.7 mM PNP-G, 500 m units/mL enzyme, read-out: α-glucosidase inhibitory activity IC50
Description: α-Glucosidase (E.C.3.2.1.20) enzyme inhibition assay has been performed according to the slightly modified method of Matsui et al., (Matsui T., Yoshimoto C., Osajima K., Oki T., and Osajima Y., Biosci. Biotech. Biochem., 1996, 60, 2019-2022). α-Glucosidase (E.C.3.2.1.20) from Saccharomyces species, purchased commercially (Wako 076-02841; Wako Pure Chemical Industries Ltd., 1-2 Doshomachi 3-Chome, Chuo-ku, Osaka 540-8605, Japan). The enzyme inhibition was measured spectrophotometrically at pH 6.9 and at 37° C. using 0.7 mM p-nitrophenyl α-D glucopyranoside (PNP-G) as a substrate and 500 m units/mL enzyme, in 50 mM sodium phosphate buffer containing 100 mM NaCl. […] The increment in absorption at 400 nm, due to the hydrolysis of PNP-G by α-glucosidase, was monitored continuously on microplate spectrophotometer (Spectra Max Molecular Devices, USA).

Compound | antioxidant properties (in words) [1] | antibacterial activity against MDR bacteria (in words) [2] | Inhibition zone, ST (Salmonella typhi) (Salmonella typhi) [mm] | Inhibition zone, SF (Shigella flexneri) (Shigella flexneri) [mm] | Inhibition zone, SA (Staphylococcus aureus) (Staphylococcus aureus) [mm] | Inhibition zone, BS (Bacillus subtilis) (Bacillus subtilis) [mm] | Inhibition zone, PA (Pseudomonas aeruginosa) (Pseudomonas aeruginosa) [mm] | Inhibition zone, EC (Escherichia coli) (Escherichia coli) [mm] | activity against Salmonella typhi (in words) (Salmonella typhi) | activity against Pseudomonas aeruginosa (in words) (Pseudomonas aeruginosa) | α-glucosidase inhibition (in words) [3] | IC50 [3] [µM] | antibacterial activity against Staphylococcus aureus (in words) (Staphylococcus aureus)
CC(C)C(=O)c1c(O)c([C@H](C2=C(O)C(C)(C)C(=O)C(C)(C)C2=O)C(C)C)c(O)c([C@H](C2=C(O)C(C)(C)C(=O)C(C)(C)C2=O)C(C)C)c1O [Myrtucommulone-A] | powerful antioxidant properties | significant antibacterial activity | – | – | – | – | – | – | – | – | – | – | –
CC(=O)c1c(O)c(C)c(O)c2c1OC1=CC(=O)C(C(C)=O)C(=O)C12C (centres unmarked) [Compound 9, usnic acid] | – | – | 17 | 15 | 15 | 16 | 17 | 11 | – | – | – | – | –
C[C@H]1[C@H](C)CC[C@]2(C(=O)O)CC[C@]3(C)C(=CC[C@@H]4[C@@]5(C)C[C@@H](O)[C@H](O)C(C)(C)[C@@H]5CC[C@]43C)[C@H]12 [Compound 11, corosolic acid] | – | – | 17 | 15 | – | 15 | 17 | – | significant activity | significant activity | – | – | –
CC(C)C(=O)c1c(O)cc(O)c2c1OC1=C(C(=O)C(C)(C)C(=O)C1(C)C)C2C(C)C (centres unmarked) [Compound 4, Myrtucommulone-B] | – | – | – | – | – | – | – | – | – | – | strong inhibition | 40 ± 1 | –
Cc1c(O)c(C(=O)C(C)C)c(O)c(C(C2=C(O)C(C)(C)C(=O)C(C)(C)C2=O)C(C)C)c1O (centres unmarked) [semimyrtucommulone] | powerful antioxidant properties | less active | – | – | – | – | – | – | – | – | – | – | –
CC1(C)CC[C@]2(CO)CC[C@]3(C)C(=CC[C@@H]4[C@@]5(C)CC[C@H](O)C(C)(C)[C@@H]5CC[C@]43C)[C@@H]2C1 [Compound 13, erythrodiol] | – | – | 19 | – | 11 | 17 | 12 | 16 | significant activity | significant activity | – | – | –
CC1(C)CC[C@]2(C(=O)O)CC[C@]3(C)C(=CC[C@@H]4[C@@]5(C)CC[C@H](O)C(C)(C)[C@@H]5CC[C@]43C)[C@@H]2C1 [Compound 14, oleanolic acid] | – | – | 16 | 10 | – | 15 | 16 | – | significant activity | significant activity | – | – | –
CC(C)C(=O)c1c(O)c(C(C2=C(O)C(C)(C)C(=O)C(C)(C)C2=O)C(C)C)c(O)c2c1OC1=C(C(=O)C(C)(C)C(=O)C1(C)C)C2C(C)C (centres unmarked) [Compound 3, Myrtucommulone-C] | – | – | – | – | – | – | – | – | – | – | highest activity | 35.4 ± 1.15 | –
Myrtucommulone-D [Compound 1] | – | – | 15 | 12 | 24 | 15 | – | – | – | – | – | 84.3 ± 3 | significant antibacterial activity
CC1(C)CC[C@]2(C(=O)O)CC[C@]3(C)C(=CC[C@@H]4[C@@]5(C)C[C@@H](O)[C@H](O)[C@@](C)(CO)[C@@H]5CC[C@]43C)[C@@H]2C1 [Compound 12, arjunolic acid] | – | – | 16 | 13 | 15 | 15 | 12 | 9 | significant activity | significant activity | – | – | –
C=C(C)[C@@H]1CC[C@]2(CO)CC[C@]3(C)[C@H](CC[C@@H]4[C@@]5(C)CC[C@H](O)C(C)(C)[C@@H]5CC[C@]43C)[C@@H]12 [Compound 15, betulin] | – | – | 16 | 15 | – | – | 18 | – | significant activity | significant activity | – | – | –
CC(C)C(=O)c1c(O)c2c(c3c1OC1=C(C(=O)C(C)(C)C(=O)C1(C)C)[C@@H]3C(C)C)OC1=C(C(=O)C(C)(C)C(=O)C1(C)C)[C@@H]2C(C)C [Compound 2, Myrtucommulone-E] | – | – | 17 | 10 | – | 15 | 13 | 10 | – | – | – | 46.6 | significant antibacterial activity
C[C@@H](O)[C@H]1C(=O)N2C(C(=O)O)=C(SCCN=CN)C[C@H]12 [Imipenem, reference compound] | – | – | 25 | 27 | 33 | 33 | 24 | 30 | – | – | – | – | –
CC[C@H](CC[C@@H](C)[C@H]1CC[C@H]2[C@@H]3CC=C4C[C@@H](O)CC[C@]4(C)[C@H]3CC[C@]12C)C(C)C [Compound 7, β-sitosterol] | – | – | 18 | – | 15 | 12 | 16 | – | significant activity | significant activity | – | – | –
